Assay results from patent US9456992B2 (XSPRAY MICROPARTICLES AB, priority 2012, dated 2016).
Structures can show the parent of a compound that is named as a salt.

Columns and labels:
[1] = Dissolution measurement assay (apparent solubility, non-sink) in FaSSIF solution (pH 6.5); settings: for AUC/ 80 min. Mg/min/L: Area Under the Curve during 80 minutes dissolution in FaSSIF solution (pH 6.5)
Description: The medium was prepared in accordance with the manufacturer's instructions. The amount of powder added depends on the wished “total PKI concentration”. […] For other experiments, the drug load was first estimated by HPLC and the amount of powder to obtain the drug concentration was calculated.
Typically, the powder was added in a 8 mL glass bottle and 7 mL of solution was added (typically FaSSIF, FeSSIF or SGF). The glass bottle was put on a shaker (approximately 1 rotation per minute) for dissolution. Samples of 500 μl where taken after different times, and subsequently centrifuged at approximately 15000 g for 3 minutes. The resulting supernatant was then analyzed by HPLC (C18 column Eclipse, 4.6 mm×15 cm, 1 mL/min, detection at […]. Generally samples were taken after 5, 30 and 90 min and eventually 150 min.
(§1) A number of experiments were carried out, wherein nilotinib base or nilotinib HCl represented the protein kinase inhibitor. The experiments were carried out by measuring concentration of solubilized PKI (mg/L) after 5, 30 and 90 minutes dissolution in a solution at about pH 6.5, namely FaSSIF (Fasted State Simulated Intestinal Fluid). Further, experiments were carried out in an alternative solution at about pH 5, namely FeSSIF (Fed State Simulated Intestinal Fluid). Samples of the solution were taken at various time intervals and the amount of protein kinase inhibitor was measured by the dissolution measurement assay described above.
as §1, with “erlotinib” for “nilotinib base or nilotinib”, “PKI.” for “protein kinase inhibitor.”, “of” for “of solubilized”, “PKI” for “protein kinase inhibitor”
as §1, with “pazopanib” for “nilotinib base or nilotinib HCl”, “PKI.” for “protein kinase inhibitor.”, “of” for “of solubilized”, “PKI” for “protein kinase inhibitor”
(§2) A number of experiments were carried out, wherein lapatinib base or lapatinib ditosylate salt represented the PKI. The experiments were carried out by measuring concentration of PKI (mg/L) after 5, 30 and 90 minutes dissolution in a solution at about pH 6.5, namely FaSSIF (Fasted State Simulated Intestinal Fluid). Samples of the solution were taken at various time intervals and the amount of PKI was measured by the dissolution measurement assay described above.
as §2, with “gefitinib” for “lapatinib base or lapatinib ditosylate salt”, “3, 40” for “5, 30”, “80” for “90”
as §2, with “dasatinib” for “lapatinib base or lapatinib ditosylate salt”, “3, 40” for “5, 30”, “80” for “90”

[2] = Dissolution rate measurement in sink conditions, flow through cell system, FaSSIF, 37° C.; format: physicochemical; settings: sink condition in FaSSIF; for Initial Dissolution Rate: initial slope of accumulated % solubilized vs time, 0 to 10 minutes, 37° C.
Description: Typically, said dissolution rate is measured by a flow through cell system in sink conditions, e.g., according to the US Pharmacopea (USP4). Dissolution measurement in sink conditions of hybrid nanoparticles may be measured in a method consisting of adding the wished amount of powder into a flow through cell system (SOTAX, Allschwill, Switzerland), mounting the cell onto its apparatus and then pumping the appropriate medium (typically FaSSIF, FeSSIF, SGF) through the powder. The temperature of the apparatus is typically set to 37° C. The amount of powder added into the cell depends on drug load of the powder: The exact amount of powder can be calculated from results obtained from drug load analysis of the powders. The PKI may be added into the flow through cell and a flow rate between 5 and 25 ml medium/min is pumped through the powder. […] Samples are typically taken after 0, 0.5, 1, 1.5, 2, 3, 4, 5, 6, 7, 8, 9, 10, 15, 20, 25, 30, 35 and 40 min from the moment the medium comes out from the flow through cell. The accumulated % solubilized of the amount of active substance added into the flow through cell can be calculated and plotted against time (min). The initial slope (“initial dissolution rate”, representing 0-10 minutes) of the graph may be estimated and taken as the dissolution rate of the material in sink condition at 37° C. in the given dissolution medium.
Typically, said dissolution rate is measured by a flow through cell system, for instance in sink conditions. […] The temperature of the apparatus is typically set to 37° C. The amount of powder added into the cell depends on drug load of the powder: The exact amount of powder can be calculated from results obtained from drug load analysis of the powders. The PKI may be added into the flow through cell and a flow rate between 5 and 25 ml medium/min is pumped through the powder. […] Samples are typically taken after 0, 0.5, 1, 1.5, 2, 3, 4, 5, 6, 7, 8, 9, 10, 15, 20, 25, 30, 35 and 40 min from the moment the medium comes out from the flow through cell. The accumulated % solubilized of the amount of active substance added into the flow through cell, can be calculated and plotted against time (min). The initial slope (“initial dissolution rate”, representing 0-10 minutes) of the graph can be estimated and taken as the dissolution rate of the material in sink condition at 37° C. in the given dissolution medium.
Dissolution measurement in sink conditions of compositions of the invention were measured in a method consisting of adding the wished amount of powder into a flow through cell system (SOTAX, Allschwill, Switzerland), mounting the cell onto its apparatus and then pumping the appropriate medium (typically FaSSIF, FeSSIF, SGF) through the powder. The temperature of the apparatus was set to 37° C. The amount of powder added into the cell depends on drug load of the powder: The exact amount of powder was calculated from results obtained from drug load analysis of the powders.
Typically, 3.5 to 7 mg PKI was added into the flow through cell and a flow rate between 8 and 16 ml medium/min (preferably about 8 ml medium/min) was pumped through the powder. One ml samples of the medium passing through the cell were collected at predetermined times. […] Samples were taken after 0, 0.5, 1, 1.5, 2, 3, 4, 5, 6, 7, 8, 9, 10, 15, 20, 25, 30, 35 and 40 min from the moment the medium comes out from the flow through cell. The accumulated % solubilized of the amount of active substance added into the flow through cell was calculated and plotted against time (min). The initial slope (“initial dissolution rate”) of the graph was estimated, as measured during 0 to 10 minutes, and taken as the dissolution rate of the material in sink condition at 37° C. in the given dissolution medium.

[3] = nilotinib HCl, FaSSIF solution (pH 6.5), after 30 minutes dissolution, HCl

Structure (SMILES): Cc1cn(-c2cc(NC(=O)c3ccc(C)c(Nc4nccc(-c5cccnc5)n4)c3)cc(C(F)(F)F)c2)cn1 [Exp 1, Nilotinib HCl]
- % solubilized 30 min. [1, 3]: 0.20%
- AUC/ 90 min. Mg/min/L ([1]; nilotinib, FaSSIF solution (pH 6.5), Area Under the Curve during 90 minutes dissolution, HCl): 13.0 Mg/min/L

Structure (SMILES): Cc1cn(-c2cc(NC(=O)c3ccc(C)c(Nc4nccc(-c5cccnc5)n4)c3)cc(C(F)(F)F)c2)cn1 [Exp 2, Nilotinib HCl]
- % solubilized 30 min. [1, 3]: 0.04%

Structure (SMILES): Cc1cn(-c2cc(NC(=O)c3ccc(C)c(Nc4nccc(-c5cccnc5)n4)c3)cc(C(F)(F)F)c2)cn1 [Exp 3, Nilotinib HCl]
- % solubilized 30 min. [1, 3]: 0.03%

Structure (SMILES): Cc1cn(-c2cc(NC(=O)c3ccc(C)c(Nc4nccc(-c5cccnc5)n4)c3)cc(C(F)(F)F)c2)cn1 [Exp 4, Nilotinib Base]
- % solubilized 30 min. ([1]; nilotinib HCl, FaSSIF solution (pH 6.5), after 30 minutes dissolution): 0.50%

Structure (SMILES): C#Cc1cccc(Nc2ncnc3cc(OCCOC)c(OCCOC)cc23)c1 [Exp 58, erlotinib HCl]
- Conc (mg/L) 90 min ([1]; 90 min, pH 6.5): 4.6 mg/L
- % solubilized 30 min. ([1]; erlotinib HCl, FaSSIF solution (pH 6.5), 30 min dissolution): 0.6%
- AUC/ 90 min. ([1]; erlotinib HCl, FaSSIF solution (pH 6.5), AUC during 90 min dissolution): 837 Mg/min/L

Structure (SMILES): Cc1ccc(Nc2nccc(N(C)c3ccc4c(C)n(C)nc4c3)n2)cc1S(N)(=O)=O [Exp 84, pazopanib]
- % solubilized 30 min. ([1]; 30 min, pH 6.5): 2.4%
- Conc (mg/L) 90 min ([1]; 90 min, pH 6.5): 15.0 mg/L

Structure (SMILES): CS(=O)(=O)CCNCc1ccc(-c2ccc3ncnc(Nc4ccc(OCc5cccc(F)c5)c(Cl)c4)c3c2)o1 [Exp 110, lapatinib base]
- Conc (mg/L) 5 min ([1]; lapatinib, 5 minutes dissolution in FaSSIF solution (pH 6.5)): 2.9 mg/L
- Conc (mg/L) 30 min ([1]; lapatinib, 30 minutes dissolution in FaSSIF solution (pH 6.5)): 6.0 mg/L
- Conc (mg/L) 90 min ([1]; lapatinib, 90 minutes dissolution in FaSSIF solution (pH 6.5)): 6.5 mg/L
- AUC/ 90 min. Mg/min/L ([1]; lapatinib, Area Under the Curve during 90 minutes dissolution in FaSSIF solution (pH 6.5)): 494 Mg/min/L
- % solubilized 30 min. ([1]; lapatinib, after 30 minutes dissolution in FaSSIF solution (pH 6.5)): 0.3%

Structure (SMILES): COc1cc2ncnc(Nc3ccc(F)c(Cl)c3)c2cc1OCCCN1CCOCC1 [Exp 131, gefitinib]
- AUC/ 80 min. Mg/min/L ([1]; gefitinib): 5967 Mg/min/L

Structure (SMILES): Cc1nc(Nc2ncc(C(=O)Nc3c(C)cccc3Cl)s2)cc(N2CCN(CCO)CC2)n1 [Exp 138, dasatinib]
- AUC/ 80 min. Mg/min/L ([1]; dasatinib): 2396 Mg/min/L
- % solubilized 40 min. ([1]; dasatinib, after 40 minutes dissolution in FaSSIF solution (pH 6.5)): 6.0%

Structure (SMILES): CNC(=O)c1cc(Oc2ccc(NC(=O)Nc3ccc(Cl)c(C(F)(F)F)c3)cc2)ccn1 [Exp 142, sorafenib tosylate]
- Conc (mg/L) 40 min ([1]; 40 min, pH 6.5): 343.51 mg/L

Structure (SMILES): CNC(=O)c1ccccc1Sc1ccc2c(/C=C/c3ccccn3)n[nH]c2c1 [Exp 157, axitinib]
- Conc (mg/L) 3 min ([1]; pH 6.5): 0.6 mg/L
- Conc (mg/L) 40 min ([1]; 40 min, pH 6.5): 0.6 mg/L
- Conc (mg/L) 80 min ([1]; pH 6.5): 0.6 mg/L
- AUC/ 80 min. Mg/min/L ([1]; axitinib): 4.7 Mg/min/L
- % solubilized 40 min. ([1]; axitinib, after 40 minutes dissolution in FaSSIF solution (pH 6.5)): 0.1%

Structure (SMILES): CCCS(=O)(=O)Nc1ccc(F)c(C(=O)c2c[nH]c3ncc(-c4ccc(Cl)cc4)cc23)c1F [Exp 164, vemurafenib]
- Conc (mg/L) 3 min ([1]; pH 6.5): 0.3 mg/L
- % solubilized 40 min. ([1]; 40 min, pH 6.5): 0.1%
- Conc (mg/L) 40 min ([1]; 40 min, pH 6.5): 0.3 mg/L
- Conc (mg/L) 80 min ([1]; pH 6.5): 0.4 mg/L

Structure (SMILES): Cc1cn(-c2cc(NC(=O)c3ccc(C)c(Nc4nccc(-c5cccnc5)n4)c3)cc(C(F)(F)F)c2)cn1 [Exp 500, nilotinib HCl]
- Initial Dissolution Rate [2]: 0.27

Structure (SMILES): COc1cc2ncnc(Nc3ccc(F)c(Cl)c3)c2cc1OCCCN1CCOCC1 [Exp 540, gefitinib]
- Initial Dissolution Rate [2]: 2.2

Structure (SMILES): CNC(=O)c1cc(Oc2ccc(NC(=O)Nc3ccc(Cl)c(C(F)(F)F)c3)cc2)ccn1 [Exp 560, sorafenib tosylate]
- Initial Dissolution Rate [2]: 0.47

Structure (SMILES): C[C@@H](Oc1cc(-c2cnn(C3CCNCC3)c2)cnc1N)c1c(Cl)ccc(F)c1Cl [Exp 570, crizotinib]
- Initial Dissolution Rate [2]: 6.6

Structure (SMILES): CNC(=O)c1cc(Oc2ccc(NC(=O)Nc3ccc(Cl)c(C(F)(F)F)c3)cc2)ccn1.Cc1ccc(S(=O)(=O)O)cc1 [Experiment 560]
- Accumulated % of solubilized of remaining active substance at a given time (min) ([2]; 0 min): 0.2%
- Accumulated % of solubilized of remaining active substance at a given time (min) ([2]; 0.5 min): 0.4%
- Accumulated % of solubilized of remaining active substance at a given time (min) ([2]; 1 min): 0.7%
- Accumulated % of solubilized of remaining active substance at a given time (min) ([2]; 1.5 min): 1.0%
- Accumulated % of solubilized of remaining active substance at a given time (min) ([2]; 2 min): 1.3%
- Accumulated % of solubilized of remaining active substance at a given time (min) ([2]; 3 min): 1.8%
- Accumulated % of solubilized of remaining active substance at a given time (min) ([2]; 4 min): 2.2%
- Accumulated % of solubilized of remaining active substance at a given time (min) ([2]; 5 min): 2.6%
- Accumulated % of solubilized of remaining active substance at a given time (min) ([2]; 6 min): 3.0%
- Accumulated % of solubilized of remaining active substance at a given time (min) ([2]; 7 min): 3.4%
- Accumulated % of solubilized of remaining active substance at a given time (min) ([2]; 8 min): 3.8%
- Accumulated % of solubilized of remaining active substance at a given time (min) ([2]; 9 min): 4.2%
- Accumulated % of solubilized of remaining active substance at a given time (min) ([2]; 10 min): 4.6%
- Accumulated % of solubilized of remaining active substance at a given time (min) ([2]; 20 min): 8.8%
